Data set [1] has as its system FaDu (squamous cell carcinoma of the pharynx). Description: MTT assay. It counts as cell-based. The settings on record: Homo sapiens, read-out: IC50, cytotoxicity. On the procedure:
(§1) Therefore, the whole set of compounds were tested by using MTT assay in order to check their overall cytotoxic effect. The growth of cells was monitored after 24 and 48 h of incubation with the increased concentrations (1–100 µg/ml) of the thiosemicarbazide derivatives. […] This confirms that the compounds tested combine different mechanisms of anticancer activity, and DNA topoisomerase II inhibition is only one of them.
(§2) Cytotoxicity of the synthesised compounds were examined against a panel of the cancer cell lines, MCF-7 (estrogen-dependent human breast cancer cells), MDA-MB-231 (oestrogen-independent human breast cancer cells), SCC- 25 (squamous cell carcinoma of the tongue), FaDu (squamous cell carcinoma of the pharynx), A- 549 (human lung carcinoma), AGS (human gastric adenocarcinoma), LS-180, HT-29 (colon cancer cell lines), T98G (glioblastoma cells), A375 (melanoma cells). Human embryonic kidney (HEK-293) cells and human normal skin fibroblasts (CRL-2072) were used as reference cell lines. The investigated cell lines were obtained from American Type Culture Collection (ATCC; Manassas, VA, USA). A375, MCF-7, MDA-MB-231, T98G cells were cultured in Dulbecco’s Modified Eagle’s Medium (DMEM) (Sigma Aldrich, St. Louis, MO, USA) supplemented with 10% heat inactivated foetal bovine serum (FBS), penicillin (100 U/mL), and streptomycin (100 μg/mL). SCC-25 cells were cultured in 1:1 mixture of Dulbecco’s modified Eagle’s medium and Ham’s F12 Medium (Sigma Aldrich, St. Louis, MO, USA) supplemented with 400 ng/ml hydrocortisone, 10% FBS, penicillin (100 U/mL), and streptomycin (100 μg/mL). A549 and AGS cells were maintained in F-12K Medium (Sigma Aldrich, St. Louis, MO, USA). LS-180 and FaDu cells were cultured in Eagle’s Minimum Essential Medium. HT-29 cells were maintained in McCoy’s 5 A Medium (Sigma Aldrich, St. Louis, MO, USA) supplemented with 10%FBS, penicillin (100 U/mL), and streptomycin (100 μg/mL). All the cells were maintained at 37 °C in a humidified atmosphere of 5% CO2.
(§3) The synthesised compounds were dissolved in DMSO in order to obtain stock solutions. At the day of the experiment, the suspension of cells (1 × 10^5 cells/mL) in the respective medium was applied to a 96-well plate at 100 μL per well. […] The control cells were cultured only with a medium containing 2% FBS. Cytotoxicity of DMSO was also checked at concentrations present in respective dilutions of stock solution. After 24 h (or 48 h) of incubation, 15 μL of MTT working solution (5 mg/mL in PBS) was added to each well. The plate was incubated for 3 h. Subsequently, 100 μL of 10% SDS solution was added to each well. Cells were incubated overnight at 37 °C to dissolve the precipitated formazan crystals. The concentration of the dissolved formazan was evaluated by measuring the absorbance at λ = 570 nm, using a microplate reader (Epoch, BioTek Instruments, Inc., Winooski, VT, USA). At least two independent experiments were performed in triplicates. The results of the MTT assay were expressed as mean ± SD. […] IC50 values of the investigated derivatives and standards were calculated using the IC50 calculator.[23]
In general terms: Formazan colour is commonly taken as a measure of viable cells.

The test system of data set [2] is AGS (human gastric adenocarcinoma). Briefly: MTT assay. Format: cell-based. The settings on record: read-out: IC50, cytotoxicity. As for the experimental part:
as §1, §2, §3

In data set [3] the test system is LS180 (colon cancer cell line). Briefly: MTT assay. The following applies: Homo sapiens, read-out: IC50, cytotoxicity. Format: cell-based. On the procedure: as §1, §2, §3
Data set [4] has as its system HT-29 (colon cancer cell line). Description: MTT assay. It counts as cell-based. The settings on record: Homo sapiens, HT-29, MTT, read-out: IC50, cytotoxicity. As for the experimental part:
as §1, §2, §3

For another data set, the system named is A375 (melanoma cells). Briefly: MTT assay. It counts as cell-based. The settings on record: Homo sapiens, read-out: IC50, cytotoxicity. On the procedure: as §1, §2, §3
Data set [5] has as its system MDA-MB-231 (estrogen-independent human breast cancer cells). Description: MTT assay. It counts as cell-based. The following applies: MDA-MB-231, MTT, read-out: IC50, cytotoxicity. On the procedure:
as §1, §2, §3

Data set [6] deals with T98G (glioblastoma cells). Description: MTT assay. Format: cell-based. The settings on record: Homo sapiens, read-out: IC50, cytotoxicity. On the procedure: as §1, §2, §3
In data set [7] the test system is A549 (human lung carcinoma). Description: MTT assay. The following applies: read-out: IC50, cytotoxicity. Format: cell-based. As for the experimental part:
as §1, §2, §3

The subject of data set [8] is SCC-25 (squamous cell carcinoma of the tongue). Briefly: MTT assay. Format: cell-based. The settings on record: Homo sapiens, SCC-25, MTT, read-out: IC50, cytotoxicity. On the procedure:
as §1, §2, §3

The subject of data set [9] is MCF-7 (estrogen-dependent human breast cancer cells). Briefly: MTT assay. Format: cell-based. The following applies: MCF7, MCF-7, MTT, read-out: IC50, cytotoxicity. As for the experimental part: as §1, §2, §3
The nature of another data set: MTT assay. The settings on record: human, HEK-293 cells (normal reference cell line), HEK-293 (normal cells), read-out: IC50, cytotoxicity. Format: cell-based. As for the experimental part: as §1, §2, §3

Values after ≈ are worked out from the molar mass of the structure shown. Read-outs that look alike come from different tables or passages of the source. Some results are limits rather than exact numbers.

Usually melting point stands for the temperature of the solid-liquid transition. A word on the IC50: it is the concentration that inhibits the measured activity by half. In the case of `O=C(Cc1cccc2ccccc12)NNC(=S)Nc1c(F)cccc1F` [Compound 10, 4-(2,6-Difluorophenyl)-1-[(naphth-1-yl)acetyl]thiosemicarbazide], the melting point fell in the range of 186 to 188 °C. For the same compound, in data set [1] (24h), the IC50 was 20.1 µg/mL (≈ 54.2 µM). Further, the IC50 in data set [1] (48 h) was 29.7 µg/mL (≈ 80.1 µM). Moreover, the IC50 in data set [2] (24h) is 29.5 µg/mL (≈ 79.3 µM). Further, the IC50 in [2] (48 h) came to 21.1 µg/mL (≈ 56.7 µM). In addition, the IC50 in data set [3] (24h) was determined as 72.4 µg/mL (≈ 195 µM). Besides, in [3] (48 h), the IC50 was determined as 12.6 µg/mL (≈ 33.8 µM). Moreover, the IC50 in [4] (24h) was found to be 32.9 µg/mL (≈ 88.7 µM). In addition, the IC50 in data set [4] (48 h) stood at 32.2 µg/mL (≈ 86.6 µM). The IC50 with A375 (melanoma cells) (A-375, 24h) stood at 47.9 µg/mL (≈ 129 µM). Further, the IC50 in the data set on A375 (melanoma cells) (A-375, 48 h) amounted to 30.1 µg/mL (≈ 81.2 µM). The IC50 in data set [5] (24h) amounted to 83.4 µg/mL (≈ 225 µM). Further, the IC50 in data set [5] (48h) worked out at 68.1 µg/mL (≈ 183 µM). In addition, in [6] (24h), the IC50 is 47.2 µg/mL (≈ 127 µM). The IC50 in data set [6] (48h) is 30.6 µg/mL (≈ 82.5 µM). For the same compound, in [7] (24h), the IC50 was 92.6 µg/mL (≈ 249 µM). The IC50 in [7] (48h) was 32.8 µg/mL (≈ 88.4 µM). Moreover, the IC50 in data set [8] (24h) stood at 52.4 µg/mL (≈ 141 µM). Besides, the IC50 in data set [8] (48 h) was 23.9 µg/mL (≈ 64.2 µM). In addition, the IC50 in data set [9] (24h) was found to be 64.1 µg/mL (≈ 173 µM). Moreover, in data set [9] (48h), the IC50 amounted to 20.6 µg/mL (≈ 55.6 µM). In the data set “MTT assay”, the IC50 at 24 h amounted to 63.7 µg/mL (≈ 172 µM) and the IC50 at 48 h amounted to 19.5 µg/mL (≈ 52.5 µM).
`Cc1cccc(C(=O)NC(=S)NNC(=O)c2ccccc2[N+](=O)[O-])c1` [Compound 5, 4-(3-Methylobenzoyl)-1-(2-nitrobenzoyl)thiosemicarbazide] registered a melting point of 194 to 195 °C. Also, the IC50 in data set [1] (24h) was above 100 µg/mL. Also, in data set [1] (48 h), the concentration for half-maximal inhibition (IC50) was 31.7 µg/mL (≈ 88.4 µM). Moreover, the 50% inhibitory concentration (IC50) in [2] (24h) was above 100 µg/mL. Moreover, the IC50 in [2] (48 h) was 63.9 µg/mL (≈ 178 µM). Also, the IC50 in [3] (24h) is above 100 µg/mL. Further, the IC50 in data set [3] (48 h) was 19.8 µg/mL (≈ 55.4 µM). Also, the IC50 in data set [4] (24h) was 45.2 µg/mL (≈ 126 µM). In addition, in data set [4] (48 h), the IC50 turned out to be 12.3 µg/mL (≈ 34.3 µM). Also, in the data set on A375 (melanoma cells) (A-375, 24h), the IC50 is 89.3 µg/mL (≈ 249 µM). The half-inhibitory concentration (IC50) with A375 (melanoma cells) (A-375, 48 h) came to 38.5 µg/mL (≈ 107 µM). Also, the IC50 in [5] (24h) is above 100 µg/mL. The IC50 in data set [5] (48h) stood at 56.3 µg/mL (≈ 157 µM). Moreover, the IC50 in [6] (24h) is above 100 µg/mL. The IC50 in data set [6] (48h) was found to be 30.1 µg/mL (≈ 83.9 µM). Also, the IC50 in data set [7] (24h) is above 100 µg/mL. The IC50 in data set [7] (48h) is above 100 µg/mL. For the same compound, in [8] (24h), the IC50 is above 100 µg/mL. Also, the IC50 in data set [8] (48 h) was determined as 17.3 µg/mL (≈ 48.3 µM). For the same compound, the IC50 in [9] (24h) is above 100 µg/mL. Besides, in data set [9] (48h), the IC50 turned out to be 28.1 µg/mL (≈ 78.5 µM). Further, in “MTT assay”, the IC50 at 24 h is 78.1 µg/mL (≈ 218 µM) and the half-inhibitory concentration (IC50) at 48 h came to 24.6 µg/mL (≈ 68.6 µM).
For the compound `O=C(NNC(=S)NC(=O)c1ccccc1Cl)c1ccc(O)c([N+](=O)[O-])c1` [Compound 7, 4-(2-Chlorobenzoyl)-1-(4-hydroxy-3-nitrobenzoyl)thiosemicarbazide], the IC50 in [1] (24h) was 33.5 µg/mL (≈ 84.9 µM); in data set [1] (48 h), 22.5 µg/mL (≈ 56.9 µM); in data set [2] (24h) it was above 100 µg/mL; in data set [2] (48 h) it was 18.8 µg/mL (≈ 47.5 µM); in [3] (24h), above 100 µg/mL; in data set [3] (48 h), 24.7 µg/mL (≈ 62.5 µM). The IC50 in [4] (24h) is 47.4 µg/mL (≈ 120 µM); in data set [4] (48 h), 7.18 µg/mL (≈ 18.2 µM); with A375 (melanoma cells) (A-375, 24h) it was above 100 µg/mL; in the data set with A375 (melanoma cells) (A-375, 48 h), 13.9 µg/mL (≈ 35.2 µM); in data set [5] (24h), above 100 µg/mL; in data set [5] (48h) it was 69.4 µg/mL (≈ 176 µM). Moreover, the IC50 in data set [6] (24h) is 11.4 µg/mL (≈ 29 µM); in [6] (48h), 10.7 µg/mL (≈ 27 µM); in [7] (24h) it was above 100 µg/mL; in data set [7] (48h) it was above 100 µg/mL; in data set [8] (24h) it was 42.4 µg/mL (≈ 107 µM); in [8] (48 h), 24.3 µg/mL (≈ 61.6 µM). Besides, the IC50 is above 100 µg/mL in data set [9] (24h) and 24.8 µg/mL (≈ 62.9 µM) in [9] (48h). Moreover, in “MTT assay”, the IC50 at 24 h was determined as 67.2 µg/mL (≈ 170 µM). In addition, the IC50 at 48 h in the data set “MTT assay” is 32.7 µg/mL (≈ 82.8 µM).
